Experimental data published in paper PMC8632988, “Inhibition of SYK and cSrc kinases can protect bone and cartilage in preclinical models of osteoarthritis and rheumatoid arthritis” (Scientific Reports, 2021).
Where “and” joins values, the source holds several entries; their conditions need not be identical. Equal entries are not always repeated.

Legend:
[1] = test system: mongrel rats, AIA model; experiment: Adjuvant-induced arthritis in rats; assay type: in vivo
Protocol: Rat adjuvant-induced arthritis (AIA) model was performed at Pharmenterprises, Russia as described previously^3 and approved by Ethics Committee of Pharmenterprises. Male 10 week old mongrel rats were divided into eleven groups: negative control (#1), positive control (#2) and nine treatment groups (#3–11), ten […] in each group. Group #1 was left intact, while subplantar injection of 0.1 mL of Complete Freund’s adjuvant (CFA, Sigma) was made on day 0 at right paws of rats in groups […]. […] Disease progression was monitored by measuring volumes of the right (involved) and left (non-involved) paws on days 0, 14, 18, 21, 25, and 28.

[2] = test system: Lewis rats, CIA model; experiment: Collagen-induced semi-established arthritis model in rats; assay type: in vivo, rat
Protocol: Rat CIA model was performed was performed at Pharmenterprises, Russia and approved by Ethics Committee of Pharmenterprises. Female Lewis rats with body weight of 164–183 g (Charles River Laboratories, Inc., Wilmington, MA) were injected with porcine type II collagen (Chondrex) emulsified with Freund’s Incomplete Adjuvant (Sigma Aldrich) at two sites at the base of the tail according to standard protocol. On day 7, the rats were boosted with a second subcutaneous injection. On day 6 of the study, rats were randomized by body weight into six groups: a control group of four, and five treatment groups of eight. […] Disease progression was monitored via daily ankle thickness measurements. At study termination on day 16 rats were anesthetized with Isoflurane, bled by vacutainer through the descending aorta to exsanguinate and then euthanized for tissue collection. Hind paws were transected at the level of the medial and lateral malleolus, weighed, and collected for microscopy.
[…]

[3] = biological target: T1, c-Src (Homo sapiens, UniProt P12931); experiment: cSrc inhibition and kinase selectivity profile assay; assay type: biochemical; conditions: 500 nM; relative to DMSO; read-out: Residual enzymatic activity
T1 construct: purchased Reaction Biology Corporation (assay service)
Protocol: The activity of MT-SYK-03 against cSrc kinase and selectivity profile towards other 341 kinases was determined at Reaction Biology Corporation (Malvern, PA, USA) using the standard kinase assay protocol. […]; unbound phosphate was removed by extensive washing of filters in phosphoric acid. Kinase activity data was expressed as the percent remaining kinase activity in test samples compared to vehicle (dimethyl sulfoxide) reactions based on the radioactivity of reaction products (see Table S2). Experiment was replicated twice.

[4] = biological target: T2, DYRK4 (Homo sapiens, UniProt Q9NR20); experiment: Kinase selectivity profile assay; assay type: biochemical; conditions: 500 nM; relative to DMSO; read-out: Residual enzymatic activity
T2 construct: purchased Reaction Biology Corporation
Protocol: The activity of MT-SYK-03 against cSrc kinase and selectivity profile towards other 341 kinases was determined at Reaction Biology Corporation (Malvern, PA, USA) using the standard kinase assay protocol. […] Kinase activity data was expressed as the percent remaining kinase activity in test samples compared to vehicle (dimethyl sulfoxide) reactions based on the radioactivity of reaction products (see Table S2). Experiment was replicated twice.

[5] = ankle, day 16, MTX 0.075 mg/kg PO QD + test article vehicle PO BID, group mean
[6] = ankle, day 16, MTX 0.075 mg/kg PO QD + test article vehicle PO BID, individual joint (animal, R/L)
[7] = ankle, day 16, MTX 0.075 mg/kg PO QD + test article vehicle PO BID, vs vehicle
[8] = knee, day 16, MTX 0.075 mg/kg PO QD + test article vehicle PO BID, group mean
[9] = knee, day 16, MTX 0.075 mg/kg PO QD + test article vehicle PO BID, individual joint (animal, R/L)
[10] = knee, day 16, MTX 0.075 mg/kg PO QD + test article vehicle PO BID, vs vehicle

T2 sequence (Q9NR20 whole entry): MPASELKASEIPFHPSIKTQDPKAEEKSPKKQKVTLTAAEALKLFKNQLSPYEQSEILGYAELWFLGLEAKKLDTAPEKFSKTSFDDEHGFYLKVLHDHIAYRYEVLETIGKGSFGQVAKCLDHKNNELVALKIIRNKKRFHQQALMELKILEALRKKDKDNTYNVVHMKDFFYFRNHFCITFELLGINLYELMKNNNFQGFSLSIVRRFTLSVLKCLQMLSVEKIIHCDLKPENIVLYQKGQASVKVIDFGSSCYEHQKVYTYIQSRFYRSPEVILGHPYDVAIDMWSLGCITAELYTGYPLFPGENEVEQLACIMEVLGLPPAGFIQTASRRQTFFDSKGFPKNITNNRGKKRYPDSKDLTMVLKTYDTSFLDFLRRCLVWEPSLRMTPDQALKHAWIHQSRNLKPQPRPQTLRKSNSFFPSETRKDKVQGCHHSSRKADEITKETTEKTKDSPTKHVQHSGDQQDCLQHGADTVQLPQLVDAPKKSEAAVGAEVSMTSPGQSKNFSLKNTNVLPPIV
T1 sequence (P12931 whole entry): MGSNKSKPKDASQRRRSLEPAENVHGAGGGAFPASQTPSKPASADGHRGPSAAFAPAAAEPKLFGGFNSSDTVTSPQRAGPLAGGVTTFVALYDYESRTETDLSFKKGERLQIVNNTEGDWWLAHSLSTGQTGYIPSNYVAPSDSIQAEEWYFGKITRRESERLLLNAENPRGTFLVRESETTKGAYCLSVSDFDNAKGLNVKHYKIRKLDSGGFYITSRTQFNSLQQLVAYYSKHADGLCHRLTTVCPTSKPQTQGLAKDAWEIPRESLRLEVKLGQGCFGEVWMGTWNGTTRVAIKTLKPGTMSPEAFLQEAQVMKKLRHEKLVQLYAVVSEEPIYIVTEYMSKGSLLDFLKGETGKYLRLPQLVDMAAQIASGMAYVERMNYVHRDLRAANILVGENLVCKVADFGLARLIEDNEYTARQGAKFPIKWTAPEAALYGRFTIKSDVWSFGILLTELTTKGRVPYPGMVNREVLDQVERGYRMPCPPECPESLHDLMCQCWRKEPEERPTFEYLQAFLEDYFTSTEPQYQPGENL

Question: `CN(Cc1cnc2nc(N)nc(N)c2n1)c1ccc(C(=O)N[C@@H](CCC(=O)O)C(=O)O)cc1` [MTX, methotrexate, reference compound] was tested. Which Animal death ([1]; Methotrexate 0.2 mg/kg QD intragastric, 14 days) did it give?
Answer: 0%

Question: And the Animal death ([1]; Methotrexate 0.2 mg/kg QD intragastric, 18 days)?
Answer: 0%

Question: And the Animal death ([1]; Methotrexate 0.2 mg/kg QD intragastric, 21 days)?
Answer: 0%

Question: What about the Animal death ([1]; Methotrexate 0.2 mg/kg QD intragastric, 25 days) of the same molecule?
Answer: 10%

Question: And the Animal death ([1]; Methotrexate 0.2 mg/kg QD intragastric, 28 days)?
Answer: 20%

Question: What about the Animal death ([1]; Methotrexate 0.5 mg/kg QD intragastric, 14 days) of the same molecule?
Answer: 0%

Question: And the Animal death ([1]; Methotrexate 0.5 mg/kg QD intragastric, 18 days)?
Answer: 0%

Question: And the Animal death ([1]; Methotrexate 0.5 mg/kg QD intragastric, 21 days)?
Answer: 0%

Question: And the Animal death ([1]; Methotrexate 0.5 mg/kg QD intragastric, 25 days)?
Answer: 20%

Question: And the Animal death ([1]; Methotrexate 0.5 mg/kg QD intragastric, 28 days)?
Answer: 70%

Question: And the Rats died ([1]; rat AIA, MTX 0.2 mg/kg)?
Answer: 20%

Question: What about the Rats died ([1]; rat AIA, MTX 0.5 mg/kg) of the same molecule?
Answer: 70%

Question: What about the “Volume of treated (CFA-injected) paws” value ([1]; rat AIA, day 28) of the same molecule?
Answer: statistically significant reductions of paw volume

Question: And the “Volume of non-involved paws” value ([1]; rat AIA, high-dose MTX, day 28)?
Answer: decreased the volume of non-involved paws

Question: And the “Volume of non-involved paws” value ([1]; rat AIA, low-dose MTX, day 28)?
Answer: no statistically significant effect

Question: And the “Bone Resorption score, Mean” value [2, 5]?
Answer: 1.19

Question: What about the “Cartilage Damage score, Mean” value [2, 5] of the same molecule?
Answer: 2.00

Question: What about the “Inflammation score, Mean” value [2, 5] of the same molecule?
Answer: 3.88

Question: And the “Pannus score, Mean” value [2, 5]?
Answer: 1.19

Question: What about the “Periosteal Bone Formation score, Mean” value [2, 5] of the same molecule?
Answer: 0.63

Question: What about the “Periosteal Naïve Bone Width Actual, Mean” value [2, 5] of the same molecule?
Answer: 126.00 μm

Question: What about the “Summed Histopathology Scores, Mean” value [2, 5] of the same molecule?
Answer: 8.88

Question: And the “Bone Resorption score (0=normal to 5=severe)” value [2, 6]?
Answer: 2 and 0 and 1 and 0.5

Question: What about the “Cartilage Damage score (0=normal to 5=severe)” value [2, 6] of the same molecule?
Answer: 3 and 0.5 and 2

Question: What about the “Inflammation score (0=normal to 5=severe)” value [2, 6] of the same molecule?
Answer: 5 and 1 and 4 and 3 and 2

Question: What about the “Pannus score (0=normal to 5=severe)” value [2, 6] of the same molecule?
Answer: 2 and 0 and 1 and 0.5

Question: What about the “Periosteal Bone Formation score (0=normal to 5=severe)” value [2, 6] of the same molecule?
Answer: 1 and 0 and 0.5

Question: What about the “Periosteal Naïve Bone Width 16x Measure” value [2, 6] of the same molecule?
Answer: 3 and 4 and 0 and 2 and 1

Question: What about the “Periosteal Naïve Bone Width Actual” value [2, 6] of the same molecule?
Answer: 189 μm and 252 μm and 0 μm and 126 μm and 63 μm

Question: And the “Summed Histopathology Scores” value [2, 6]?
Answer: 13 and 1.5 and 9.5 and 8.5 and 6.5 and 12 and 4

Question: What about the “Periosteal Naïve Bone Width, ANOVA to Vehicle” value ([2]; ankle, day 16, MTX 0.075 mg/kg PO QD + test article vehicle PO BID, p value) of the same molecule?
Answer: p < 0.05

Question: And the “Bone Resorption score, % inhibition” value [2, 7]?
Answer: 19%

Question: And the “Cartilage Damage score, % inhibition” value [2, 7]?
Answer: 17%

Question: And the “Inflammation score, % inhibition” value [2, 7]?
Answer: 14%

Question: And the “Pannus score, % inhibition” value [2, 7]?
Answer: 19%

Question: What about the “Periosteal Bone Formation score, % inhibition” value [2, 7] of the same molecule?
Answer: 51%

Question: And the “Periosteal Naïve Bone Width, % inhibition” value [2, 7]?
Answer: 44%

Question: What about the “Summed Histopathology Scores, % inhibition” value [2, 7] of the same molecule?
Answer: 20%

Question: And the “Bone Resorption score, Mean” value [2, 8]?
Answer: 0.28

Question: What about the “Cartilage Damage score, Mean” value [2, 8] of the same molecule?
Answer: 0.66

Question: And the “Inflammation score, Mean” value [2, 8]?
Answer: 2.03

Question: And the “Pannus score, Mean” value [2, 8]?
Answer: 0.44

Question: And the “Summed Histopathology Scores, Mean” value [2, 8]?
Answer: 3.41

Question: What about the “Bone Resorption score (0=normal to 5=severe)” value [2, 9] of the same molecule?
Answer: 0.5 and 0 and 1

Question: What about the “Cartilage Damage score (0=normal to 5=severe)” value [2, 9] of the same molecule?
Answer: 1 and 0.5 and 0 and 2

Question: And the “Inflammation score (0=normal to 5=severe)” value [2, 9]?
Answer: 3 and 0.5 and 1 and 0 and 5 and 4 and 2

Question: And the “Pannus score (0=normal to 5=severe)” value [2, 9]?
Answer: 0.5 and 0 and 1

Question: And the “Summed Histopathology Scores” value [2, 9]?
Answer: 5 and 4.5 and 0.5 and 2 and 1 and 0 and 9 and 6 and 5.5 and 3

Question: What about the “Bone Resorption score, % inhibition” value [2, 10] of the same molecule?
Answer: 61%

Question: And the “Cartilage Damage score, % inhibition” value [2, 10]?
Answer: 50%

Question: What about the “Inflammation score, % inhibition” value [2, 10] of the same molecule?
Answer: 36%

Question: What about the “Pannus score, % inhibition” value [2, 10] of the same molecule?
Answer: 42%

Question: What about the “Summed Histopathology Scores, % inhibition” value [2, 10] of the same molecule?
Answer: 43%

Question: What about the “Decrease of periosteal bone width in knee joints” value ([2]; rat CIA, MTX 0.075 mg/kg PO QD) of the same molecule?
Answer: ~ 43%

Question: What about the “Histopathology scores for cartilage damage and bone resorption, ankles and knees” value ([2]; rat CIA, day 16) of the same molecule?
Answer: did not show statistical significance for any parameter

Question: With `COc1cc(Nc2ncc(F)c(Nc3ccc4c(n3)NC(=O)C(C)(C)O4)n2)cc(OC)c1OC` [R406, reference compound] as the molecule, how does the remaining activity at 0.5 µM [3] read?
Answer: 6.8%

Question: And the remaining activity at 0.5 µM [4]?
Answer: 77.1%
